Here are results for 82 compounds from PubChem BioAssay AID588764 (Broad Institute, 2011).

In the assay the target is Histone acetyltransferase RTT109 (Candida albicans (strain SC5314 / ATCC MYA-2876)) (UniProt Q5AAJ8). The experiment in a line: Rtt109/Vps75 acetyltransferase inhibitor potency, dose response, biochemical, cherry-picked hits, plate reader (AID 588764). As to conditions: Rtt109/Vps75 HAT activity; for activity change, negative = inhibition: at 19.5 µM (top of the series).

Records with an inconclusive call do not appear. Activity calls are given as the source filed them. No rule for the calls is given here.

Histone acetyltransferase RTT109 (Candida albicans (strain SC5314 / ATCC MYA-2876)), sequence (Q5AAJ8 whole entry, looked up): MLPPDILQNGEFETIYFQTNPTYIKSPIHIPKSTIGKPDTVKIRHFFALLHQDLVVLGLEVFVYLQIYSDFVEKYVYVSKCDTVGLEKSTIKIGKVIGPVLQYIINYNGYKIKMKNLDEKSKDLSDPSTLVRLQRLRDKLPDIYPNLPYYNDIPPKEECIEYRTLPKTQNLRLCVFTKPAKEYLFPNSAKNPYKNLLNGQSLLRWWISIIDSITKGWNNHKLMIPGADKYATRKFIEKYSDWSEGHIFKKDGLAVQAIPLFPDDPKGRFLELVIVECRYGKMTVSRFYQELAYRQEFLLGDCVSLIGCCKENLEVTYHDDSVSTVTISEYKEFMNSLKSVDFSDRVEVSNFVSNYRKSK

As to `COc1ccc(NC(=O)Nc2nnc(-c3cccs3)s2)cc1`, the “activity change, negative = inhibition” value is “inactive”. The same measure, in the same setting: next, `COc1ccccc1C(=O)Nc1ccc(OCC(=O)N2CC(C)CC(C)C2)cc1` (configuration not stated): “inactive”; `CCN1C=CC(=C2C(=O)c3ccccc3C2=O)C=C1`: “inactive”. Same read-out and setting: the value for `Cn1c(=O)c2c(nc(NC3CCCCC3)n2CC(=O)C23CC4CC(CC(C4)C2)C3)n(C)c1=O` was “inactive”; that for `CN1CCN(S(=O)(=O)c2cccc(C(=O)N(Cc3ccccc3)c3ccccc3)c2)CC1` was “inactive”. The same measure, in the same setting: next, `COCc1ccc(CN2CCC(n3nccc3NC(=O)C(OC)c3ccccc3)CC2)o1` (configuration not stated): “inactive”; `COc1ccccc1CC(=O)N1CCN(S(=O)(=O)c2ccccc2F)CC1`: “inactive”. Turning to `CCOc1ccc(N2C(=O)C(Cl)=C(N3CCOCC3)C2=O)cc1`, the half-maximal activity concentration (AC50) (usually the concentration at which the activity in the assay is half-maximal) was 20.3 µM. For `COCCNC(=O)C1=C(N)C(C(=O)Nc2ccc(C)c(S(=O)(=O)N3CCCCC3)c2)SC1=Nc1ccc(C)cc1C` (configuration not stated), the “activity change, negative = inhibition” value is “inactive”.

`O=c1c2cc(F)ccc2sn1-c1ccccc1`: the AC50 was 1.81 µM.

For `O=C(Nc1ccc(F)cc1F)N1CCCC(c2nc(-c3ccc(F)cc3)no2)C1` (configuration not stated), the “activity change, negative = inhibition” value is “inactive”. As for `COc1cc(OC)c(NC(=O)CN(C)S(=O)(=O)c2ccc(-c3ccc(=O)[nH]n3)s2)cc1Cl`, the “activity change, negative = inhibition” value is “inactive”. Still for that read-out and setting: next, `O=C1CCC(=O)N1c1ccc(-c2nc3ccccc3s2)cc1`: “inactive”. Still for that read-out and setting: next, `CC1Cc2ccccc2N1C(=O)c1ccc(N2CCCC2)c([N+](=O)[O-])c1` (configuration not stated): “inactive”.

On to `CC(=O)N1CCN(c2ncnc3ccccc23)CC1`, for which the “activity change, negative = inhibition” value was “inactive”. As for `CCOC(=O)C1=C(C)NC(=S)N(C(C)=O)C1c1ccc(Cl)cc1` (configuration not stated), the “activity change, negative = inhibition” value was “inactive”.

For `N=c1n(CCN2CCCCC2)c2ccccc2n1CC(O)c1ccc(Cl)c(Cl)c1` (configuration not stated), the “activity change, negative = inhibition” value was “inactive”. Consider `Cn1c(SCC(=O)NC2CCCCC2)nnc1-c1cccnc1`, for which the “activity change, negative = inhibition” value is “inactive”. Same read-out and setting: the value for `CC(=O)Nc1nc(-c2ccccc2)c(-c2ccccc2)o1` was “inactive”; that for `Cc1nc2ccccc2n1CC(=O)NC1CCCC1` was “inactive”.

Consider `O=C(COC(=O)c1cnccn1)c1ccc([N+](=O)[O-])cc1`, for which the concentration at half-maximal activity (AC50) is 11.4 µM.

Turning to `O=C(CCc1nnc(C2(c3ccc(Cl)cc3)CCC2)o1)NCCCn1cccn1`, the “activity change, negative = inhibition” value is “inactive”.

Take `Cc1cccn2cc(CCNS(=O)(=O)c3cccs3)nc12`: the “activity change, negative = inhibition” value is “inactive”. With `COc1ccc(S(=O)(=O)N(C)C)cc1NC(=O)Cc1ccc(S(=O)(=O)N2CCOCC2)s1`, the “activity change, negative = inhibition” value was “inactive”. Still for that read-out and setting: the value for `Cc1ccc(C(=O)NCCNC(=O)COc2ccccc2Cl)cn1` was “inactive”.

In the case of `N#C/C(=C\c1ccncc1)c1nc2c(s1)CCCC2`, the “activity change, negative = inhibition” value is “inactive”. In the case of `CC(C)C[C@@H]1CN=C(N)N1C[C@@H]1CCCN1C[C@H](C)N1C[C@@H](Cc2ccccc2)N(CCc2ccc(Cl)c(Cl)c2)C1=N`, the “activity change, negative = inhibition” value was “inactive”. On the same count and under the same terms, the value for `COCCNC(=O)C(c1ccc(O)cc1)N(Cc1ccccc1)C(=O)CCC(=O)Nc1ccccn1` (configuration not stated) was “inactive”; that for `Cc1ccc(S(=O)(=O)/N=C2\C=C(NS(=O)(=O)c3ccccc3)C(=O)c3ccccc32)cc1` was “inactive”; that for `COc1cccc(OC)c1C(=O)Nc1cccc(-c2ccc(N3CCOCC3)nn2)c1` was “inactive”.

Consider `Cc1ccc2c(c1)C1C[N+](C)(CC(=O)c3ccc(Cl)cc3Cl)CCC1N2C(=O)c1ccc(F)cc1` (configuration not stated), for which the AC50 was 13.4 µM. `CCn1c(SCC(=O)Nc2ccc(Br)cc2)nc2sc3c(c2c1=O)CCN(C)C3`: the “activity change, negative = inhibition” value was “inactive”. As for `O=C(Nc1cccc(-c2nc3cccnc3s2)c1)c1cccnc1Cl`, the “activity change, negative = inhibition” value is “inactive”. With `COc1ccccc1NC(=O)CSC(N)=O`, the “activity change, negative = inhibition” value was “inactive”. The same measure, in the same setting: next, `COc1cccc(/C=C2/Sc3ccc(C(=O)NCCN4CCCC4)cc3NC2=O)c1`: “inactive”; `COc1ccc(OC)c(/C=C2\SC(=S)N(C(C(=O)O)c3ccccc3)C2=O)c1` (configuration not stated): “inactive”. Turning to `CCOc1cc(S(=O)(=O)N2CCC(Cc3ccccc3)CC2)c(OCC)cc1-n1cnnn1`, the “activity change, negative = inhibition” value was “inactive”. On the same count and under the same terms, next, `O=C(O)c1ccc(-c2ccc(/C=N/Nc3ccc([N+](=O)[O-])cc3)o2)cc1`: “inactive”; `O=C(CSC1=NC2(CCCCC2)N=C1c1ccccc1)Nc1ccc2c(c1)OCCO2`: “inactive”; `COCCN1Cc2cccc(C(=O)Nc3ccc(-c4nc5ccccc5[nH]4)cc3)c2C1=O`: “inactive”. Consider `O=C(C1CCCO1)N1CCN(C(=S)Nc2ccc(Cl)cc2Cl)CC1` (configuration not stated), for which the “activity change, negative = inhibition” value is “inactive”. With `CCOC(=O)N1CCN(Cc2c(O)ccc3ccccc23)CC1`, the concentration at half-maximal activity (AC50) is 18.8 µM.

Regarding `Cc1cc(C(=O)Nc2ccncc2)c(C)o1`, the “activity change, negative = inhibition” value is “inactive”.

Turning to `CCCCn1c(N)c(N(Cc2ccccc2OC)C(=O)c2sccc2C)c(=O)[nH]c1=O`, the “activity change, negative = inhibition” value is “inactive”. On the same count and under the same terms, next, `CC1CCCC(NS(=O)(=O)c2cccc3nsnc23)C1C` (configuration not stated): “inactive”. Same read-out and setting: next, `O=C(C[n+]1cc(-c2ccc(Cl)c(Cl)c2)n2c1CCC2)N1c2ccccc2Sc2ccccc21`: “inactive”. On the same count and under the same terms, next, `COCC(=O)OCC(=O)Nc1cc(C)c(C)cc1[N+](=O)[O-]`: “inactive”; `O=C1Cc2ccccc2Sc2c(OCCN3CCCCC3)cccc21`: “inactive”. As to `CCCC(CCC)C(=O)OC[N+](C)(C)CCOC(=O)C(O)(c1ccccc1)C1CCCC1` (configuration not stated), the “activity change, negative = inhibition” value was “inactive”. Same read-out and setting: next, `COc1cc(C2NC(=O)C(C#N)=C(S)N2c2ccccc2)ccc1OC(C)C` (configuration not stated): “inactive”; `CC1(C)C2CCC1(C)C(OCC[N+](C)(C)CC(=O)OC1CCCCC1)C2` (configuration not stated): “inactive”; `CCOc1ccc(S(=O)(=O)NCCC(=O)Nc2cccc(C(=O)OC)c2)cc1`: “inactive”. Take `CC(C)C(=O)Nc1nnc(CCN2CCCCC2)s1`: the “activity change, negative = inhibition” value is “inactive”.

Consider `O=C(CCC(=O)OCC(=O)c1ccc([N+](=O)[O-])cc1)Nc1ccccc1Cl`, for which the AC50 was 8.57 µM. For `O=S(=O)(Nc1ccc(-c2nnc(SCc3ccc(Cl)cc3)o2)cc1)c1ccccc1`, the “activity change, negative = inhibition” value is “inactive”. Same read-out and setting: next, `NNc1n[nH]c(=S)n1N`: “inactive”. `CC(=O)c1cccc(S(=O)(=O)N2CCC(C(=O)O)CC2)c1`: the “activity change, negative = inhibition” value was “inactive”. Regarding `COC(=O)c1cc2c(ccn2-c2ccc(F)cc2)n1CC(=O)C(C)(C)C`, the “activity change, negative = inhibition” value is “inactive”. Same read-out and setting: next, `C#CCOCCOCCOCCNc1nc(N2CCN(C(=O)C([C@@H](C)O)n3cc([C@@H](N)CCCCN)nn3)CC2)nc(N2CCN(C(=O)[C@H](CCCCN)n3cc(CN)nn3)CC2)n1` (some centres not stated): “inactive”; `CC(C)c1nc(SCC(=O)Nc2ccc(N3CCOCC3)cc2)c2ccccc2n1`: “inactive”. Same read-out and setting: the value for `CCOC(=O)C1CCN(S(=O)(=O)c2ccc3c(c2)CC(C)N3C(=O)C2CCC2)CC1` (configuration not stated) was “inactive”; that for `COc1ccc(S(=O)(=O)N2CCN(c3ccccn3)CC2)cc1OC` was “inactive”. Take `Cc1nn(CC(=O)NCc2cccnc2)c(C)c1[N+](=O)[O-]`: the “activity change, negative = inhibition” value is “inactive”. Turning to `CCOC(=O)c1ccc(N2C(=O)c3n[nH]c(C)c3C2c2ccc(OC)cc2)cc1` (configuration not stated), the “activity change, negative = inhibition” value is “inactive”. As to `Cc1ccc(S(=O)(=O)c2nc(-c3ccccc3)oc2N2CCC(C(N)=O)CC2)cc1`, the “activity change, negative = inhibition” value was “inactive”. The same measure, in the same setting: the value for `COc1ccccc1NS(=O)(=O)c1ccc(C)c(C(=O)NCC2(N(C)C)CCCCC2)c1` was “inactive”. For `Oc1cc2c(cc1O)[C@H]1c3ccc(O)c(O)c3OC[C@@]1(O)C2`, the half-maximal activity concentration (AC50) was 7.81 µM. On to `Oc1ccccc1CNc1cnc2ccccc2c1`, for which the “activity change, negative = inhibition” value is “inactive”.

Take `Cc1cc(C)c2c(=O)n(CC(=O)Nc3cccc(Cl)c3C)sc2n1`: the concentration at half-maximal activity (AC50) was 1.98 µM.

Regarding `Cc1ccc2sc(C)[n+](CCO)c2c1`, the “activity change, negative = inhibition” value was “inactive”. Regarding `CCN1CCN(C(c2cccnc2)c2cc(Cl)c3cccnc3c2O)CC1` (configuration not stated), the AC50 was 13.9 µM. For the compound `CCOc1ccccc1N1CCN(C(=O)c2ccncc2)CC1`, the “activity change, negative = inhibition” value was “inactive”.

Turning to `CCOC(=O)/C=C/S(=O)(=O)c1ccc(NC(C)=O)cc1`, the half-maximal activity concentration (AC50) is 5.88 µM. `C[C@]12CC[C@@H]3c4ccc(O)c(O)c4CC[C@H]3[C@@H]1CC[C@@H]2O`: the AC50 is 10 µM. Consider `CC(C(=O)NC1C=CS(=O)(=O)C1)N1C(=O)/C(=C/c2ccc(Cl)cc2)SC1=S` (configuration not stated), for which the “activity change, negative = inhibition” value is “inactive”. Consider `CC(C)(C)c1cc(C(c2cccnc2)N2CCN(CCO)CC2)cc(C(C)(C)C)c1O` (configuration not stated), for which the AC50 was 9.87 µM.

For the compound `COC(=O)/C=C\C(=O)Nc1cccc([N+](=O)[O-])c1`, the AC50 is 5.62 µM. For `COc1cc(SC#N)ccc1N=Cc1c(C)[nH]n(-c2ccc(C)c(C)c2)c1=O`, the “activity change, negative = inhibition” value was “inactive”. Consider `O=C(Nc1ccccc1Cl)c1cc(S(=O)(=O)N2CCCCC2)ccc1N1CCOCC1`, for which the “activity change, negative = inhibition” value is “inactive”. Still for that read-out and setting: the value for `Cc1cc(C)cc(NC(=O)NC(C)C2CCCO2)c1` (configuration not stated) was “inactive”. For `Oc1c(Cl)cc(Cl)c(Cl)c1Cc1c(O)c(Cl)cc(Cl)c1Cl`, the AC50 is 5.48 µM. On the same count and under the same terms, next, `CC1CCc2c(sc(N)c2C(N)=O)C1` (configuration not stated): 20.5 µM.
